Molecular target: T1, hDGAT1 (Homo sapiens, UniProt O75907)
T1 construct: host or cells: Sf9 insect cells (baculovirus); microsomal preparation
T1 sequence (O75907 1-488): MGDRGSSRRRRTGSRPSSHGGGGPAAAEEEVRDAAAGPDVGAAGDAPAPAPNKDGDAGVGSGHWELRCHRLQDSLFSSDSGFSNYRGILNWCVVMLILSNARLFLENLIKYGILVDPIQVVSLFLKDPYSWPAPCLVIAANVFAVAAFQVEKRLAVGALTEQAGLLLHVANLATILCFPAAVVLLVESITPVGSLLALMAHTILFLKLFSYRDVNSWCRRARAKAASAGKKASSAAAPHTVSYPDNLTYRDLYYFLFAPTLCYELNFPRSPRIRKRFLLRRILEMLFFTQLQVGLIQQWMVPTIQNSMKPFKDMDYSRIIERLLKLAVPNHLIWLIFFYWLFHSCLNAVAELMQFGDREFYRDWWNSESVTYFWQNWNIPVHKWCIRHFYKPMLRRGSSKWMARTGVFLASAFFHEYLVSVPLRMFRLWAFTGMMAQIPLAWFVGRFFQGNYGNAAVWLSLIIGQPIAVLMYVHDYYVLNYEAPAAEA
Test: In-vitro DGAT1 assay (hDGAT1 microsomes from Sf9 cells, 14C oleoyl CoA, triglyceride formation)
Format: biochemical
Details: At 1 μM
Method in brief: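 Compounds tested in duplicate at 10, 5 and 1 μM for 10 min at 37 °C. Reaction: Sf9-expressed hDGAT1 microsomes (2.5–10 μg), [14C]oleoyl-CoA plus 409.5–1638 μM dioleoylglycerol, pH 7.4 Tris-HCl with fatty-acid-free BSA. Radiolabelled triglyceride extracted into heptane and scintillation-counted.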

inhibition at 1 µM | % inhibition of hDGAT1 | Compound
75 to 100% | – | CC(C)[C@H](NC(=O)c1cc(-c2ccc(NC(=O)Nc3ccccc3OC(F)(F)F)cc2)no1)C(=O)O [Example 203, (S)-3-methyl-2-(3-(4-(3-(2-(trifluoromethoxy)phenyl)ureido)phenyl)isoxazole-5-carboxamido)butanoic acid]
50 to 75% | – | CC(C)[C@@H](NC(=O)c1cc(-c2ccc(NC(=O)Nc3cccc(C#N)c3)cc2)no1)C(=O)O [Example 217, (R)-2-(3-(4-(3-(3-cyanophenyl)ureido)phenyl)isoxazole-5-carboxamido)-3-methylbutanoic acid]
75 to 100% | – | Cc1ccc(NC(=O)Nc2ccc(-c3cc(C(=O)N[C@H](C(=O)O)C(C)C)on3)cc2)c(C)c1 [Example 171, (S)-2-(3-(4-(3-(2,4-dimethylphenyl)ureido)phenyl)isoxazole-5-carboxamido)-3-methylbutanoic acid]
50 to 75% | – | CC(C)[C@@H](C(=O)O)N(C)C(=O)c1cc(-c2ccc(NC(=O)Nc3ccc(F)cc3)cc2)no1 [Example 308, (S)-2-(3-(4-(3-(4-fluorophenyl)ureido)phenyl)-N-methylisoxazole-5-carboxamido)-3-methylbutanoic acid]
– | + (>0% Inhibition ≦50) | 2-(3-(4-(Benzyloxy)phenyl)isoxazole-5-carboxamido)-3-methylbutanoic acid [Example 324]
75 to 100% | – | CC(C)[C@H](NC(=O)c1cc(-c2ccc(NC(=O)Nc3cccc(Cl)c3)cc2)no1)C(=O)O [Example 209, (S)-2-(3-(4-(3-(3-chlorophenyl)ureido)phenyl)isoxazole-5-carboxamido)-3-methylbutanoic acid]
75 to 100% | – | CC(C)[C@H](NC(=O)c1cc(-c2ccc(NC(=O)Nc3ccc4c(c3)CCC4)cc2)no1)C(=O)O [Example 181, (S)-2-(3-(4-(3-(2,3-dihydro-1H-inden-5-yl)ureido)phenyl)isoxazole-5-carboxamido)-3-methylbutanoic acid]
0 to 50% | – | CC(C)[C@@H](NC(=O)c1cc(-c2ccc(NS(=O)(=O)c3cc(F)cc(F)c3)cc2)no1)C(=O)O [Example 320, (R)-2-(3-(4-(3,5-Difluorophenylsulfonamido)phenyl)isoxazole-5-carboxamido)-3-methylbutanoic acid]

Same assay, conditions: At 5 μM

Compound | inhibition at 5 µM
Cc1cc(NC(=O)Nc2ccccc2F)ccc1-c1cc(C(=O)NC(C(=O)O)C(C)C)on1 (stereo not shown) [Example 136, 2-(3-(4-(3-(2-Fluorophenyl)ureido)-2-methylphenyl)isoxazole-5-carboxamido)-3-methylbutanoic acid] | 75 to 100%
COC(=O)[C@@H](NC(=O)c1cc(-c2ccc(NC(=O)Nc3ccccc3F)cc2F)no1)C(C)C [Example 143, (S)-methyl 2-(3-(2-fluoro-4-(3-(2-fluorophenyl)ureido)phenyl)isoxazole-5-carboxamido)-3-methylbutanoate] | 50 to 75%

Results, then the compound that gave them:

inhibition at 5 µM | Compound
0 to 50% | COC(=O)C(NC(=O)c1cc(-c2ccc(NC(=O)Nc3cccc(C(F)(F)F)c3)cc2)no1)C(C)C (stereo not shown) [Example 277, Methyl 3-methyl-2-(3-(4-(3-(3-(trifluoromethyl)phenyl)ureido)phenyl)isoxazole-5-carboxamido)butanoate]
50 to 75% | COC(=O)[C@@H](NC(=O)c1cc(-c2ccc(NC(=O)Nc3cccc(C)c3)cc2)no1)C(C)C [Example 265, (S)-methyl 3-methyl-2-(3-(4-(3-m-tolylureido)phenyl)isoxazole-5-carboxamido)butanoate]
50 to 75% | Cc1ccc(NC(=O)Nc2ccc(-c3cc(C(=O)NC(Cc4ccccc4)C(=O)O)on3)cc2)cc1 (stereo not shown) [Example 244, 3-Phenyl-2-(3-(4-(3-p-tolylureido)phenyl)isoxazole-5-carboxamido) propanoic acid]
75 to 100% | Cc1cc(F)ccc1NC(=O)Nc1ccc(-c2cc(C(=O)NC(C(=O)O)C(C)C)on2)cc1 (stereo not shown) [Example 285, 2-(3-(4-(3-(4-fluoro-2-methylphenyl)ureido)phenyl)isoxazole-5-carboxamido)-3-methylbutanoic acid]
0 to 50% | COC(=O)C(Cc1ccccc1)NC(=O)c1cc(-c2ccc(NC(=O)Nc3ccc(F)cc3F)cc2)no1 (stereo not shown) [Example 245, Methyl 2-(3-(4-(3-(2,4-difluorophenyl)ureido)phenyl)isoxazole-5-carboxamido)-3-phenylpropanoate]

Same assay, conditions: At 10 μM

inhibition at 10 µM | Compound
50 to 75% | O=C(O)[C@@H]1CCCN1C(=O)c1cc(-c2ccc(Nc3nc4ccc(F)cc4s3)cc2)no1 [Example 19, (S)-1-{3-[4-(6-Fluoro-benzothiazol-2-ylamino)-phenyl]-isoxazole-5-carbonyl}-pyrrolidine-2-carboxylic acid]
0 to 50% | COC(=O)[C@@H](NC(=S)c1c(-c2ccc(Nc3nc4ccc(F)cc4s3)cc2)noc1-c1ccccc1)C(C)C [Example 72, (S)-2-({3-[4-(6-Fluoro-benzothiazol-2-ylamino)-phenyl]-5-phenyl-isoxazole-4-carbothioyl}-amino)-3-methyl-butyric acid methyl ester]
0 to 50% | CC(C)[C@H](NC(=O)c1onc(-c2ccc(NC(=O)Nc3ccccc3)cc2)c1-c1ccccc1)C(=O)O [Example 89, (S)-3-Methyl-2-({4-phenyl-3-[4-(3-phenyl-ureido)-phenyl]-isoxazole-5-carbonyl}-amino)-butyric acid]
0 to 50% | CC(C)[C@@H](NC(=NO)c1cc(-c2ccc(Nc3nc4ccc(F)cc4s3)cc2)no1)C(=O)O [Example 41, (R)-2-({3-[4-(6-Fluoro-benzothiazol-2-ylamino)-phenyl]-N-hydroxy-isoxazole-5-carboximidoyl}-amino)-3-methyl-butyric acid]
75 to 100% | CC(NC(=O)c1cc(-c2ccc(NC(=O)Nc3ccc(F)cc3)cc2)no1)C(=O)O (stereo not shown) [Example 116, 2-(3-(4-(3-(4-fluorophenyl)ureido)phenyl)isoxazole-5-carboxamido) propanoic acid]
0 to 50% | COC(=O)[C@H](CO)NC(=O)c1cc(-c2ccc(Nc3nc4ccc(F)cc4s3)cc2)no1 [Example 9, (S)-2-({3-[4-(6-Fluoro-benzothiazol-2-ylamino)-phenyl]-isoxazole-5-carbonyl}-amino)-3-hydroxy-propionic acid methyl ester]
75 to 100% | CC(C)[C@H](NC(=O)c1cc(-c2ccc(NC(=O)Nc3ccc(F)cc3)cc2)no1)C(=O)O [Example 85, (S)-2-[(3-{4-[3-(4-Fluoro-phenyl)-ureido]-phenyl}-isoxazole-5-carbonyl)-amino]-3-methyl-butyric acid]
0 to 50% | O=C(O)CNC(=S)c1cc(-c2ccc(Nc3nc4ccc(F)cc4s3)cc2)no1 [Example 61, ({3-[4-(6-fluoro-benzothiazol-2-ylamino)-phenyl]-isoxazole-5-carbothioyl}-amino)-acetic acid]
0 to 50% | COC[C@H](NC(=S)c1c(-c2ccc(Nc3nc4ccc(F)cc4s3)cc2)noc1-c1ccccc1)C(=O)OC [Example 74, (S)-2-({3-[4-(6-Fluoro-benzothiazol-2-ylamino)-phenyl]-5-phenyl-isoxazole-4-carbothioyl}-amino)-3-methoxy-propionic acid methyl ester]
50 to 75% | COC(=O)C(NC(=O)c1cc(-c2ccc(NC(=O)Nc3ccc(F)cc3)cc2C)no1)C(C)C (stereo not shown) [Example 133, Methyl 2-(3-(4-(3-(4-fluorophenyl)ureido)-2-methylphenyl)isoxazole-5-carboxamido)-3-methylbutanoate]
